# Reference: US5422353A, “Tetrahydropyridine derivatives” (Boehringer Ingelheim KG, priority 1988, dated 1995)
# How the values were obtained:
# [1] = target: muscarinic receptors; assay: Receptor binding studies (radioligand L(+)cis-[2-methyl-3H]-N,N,N-trimethyl-1,3-dioxolan-4-methanammonium-iodide, NET-647); conditions: cerebral cortex (rat); radioligand NET-647; tested as maleate (MA) or oxalate (OX) salt
# Protocol: The compounds of formulae I and Ia have valuable pharmacological properties. Thus, in bonding studies, they show affinities with muscarinic receptors and muscarbin-agonistic GTP-shifts (GTP=guanosintriphosphate). (Birdshall, N. I. M., E. C. Hulme and J. M. Stockton 1984 in T.I.P.S. Supplement, Proc. Internat. Symposium on Subtypes of Muscarinic Receptors, Ed. Hirschowitz, Hammer, Giacchetti, Keirns, Levine; Elsevier p. 4-8).
# The receptor binding studies were carried out according to: A. Closse, H. Bittiger, D. Langenegger and A. Wanner, Naunyn-Schmiedeberg's Arch. Pharmacol. 335, 372-377 (1987).
# Receptor binding studies
# L(+)cis-[2-methyl-^3 H]-N,N,N-trimethyl-
# 1,3-dioxolan-4-methanammonium-iodide
# NET-647, Messrs. NEN (New England
# Organ: Cerebral cortex (rat)
# [2] = system: conscious rabbit; assay: arousal reaction in the EEG (electroencephalograph) of a conscious rabbit; format: in vivo
Compound,Ki [1],arousal reaction typical of cholinomimetics in the EEG ([2]; 1 mg/kg and 3 mg/kg i.v.),arousal reaction typical of cholinomimetics in the EEG ([2]; 0.1 mg/kg and 0.3 mg/kg i.v.)
"CCCOCC1=CCN(C)CC1 [Example 9, 1-Methyl-4-propoxymethyl-1,2,3,6-tetrahydropyridine]",140 nM,,
"CCOCC1=CCN(C)CC1 [Example 2, 4-Ethoxymethyl-1-methyl-1,2,3,6-tetrahydropyridine]",210 nM,exhibit an arousal reaction typical of cholinomimetics,
"CCSCC1=CCN(C)CC1 [Example 4, 4-[(Ethylthio)methyl]-1-methyl-1,2,3,6-tetrahydropyridine]",8.3 nM,,
"COCCC1=CCN(C)CC1 [OX, 4-(methoxyethyl)-1-methyl-1,2,3,6-tetrahydropyridine]",3900 nM,,
"CSCC1=CCN(C)CC1 [Example 13, 1-Methyl-4-[(methylthio)methyl]-1,2,3,6-tetrahydropyridine]",15 nM,,exhibit an arousal reaction typical of cholinomimetics
